# Assay results published in ChEMBL document CHEMBL5126609, “Design, Synthesis, and Pharmacological Evaluation of Benzimidazolo-thiazoles as Potent CXCR3 Antagonists with Therapeutic Potential in Autoimmune Diseases: Discovery of ACT-672125” (J Med Chem, 2022).
# Experiments:
# [1] = in vitro; conditions: human, microsomes
# [2] = Unbound fraction in mouse plasma by equilibrium based LC-MS/MS analysis
# [3] = Lipophilicity, log D of the compound at pH 7.4; conditions: buffer
# [4] = in vitro; conditions: mouse, microsomes
# [5] = target: T1, C-X-C chemokine receptor type 3 (Homo sapiens, UniProt P49682); assay: Antagonist activity at human recombinant CXCR3 in human venous blood assessed as receptor internalization measured for 30 mins in presence of CXCL10 by flow cytometric analysis
# T1 sequence (P49682 whole entry): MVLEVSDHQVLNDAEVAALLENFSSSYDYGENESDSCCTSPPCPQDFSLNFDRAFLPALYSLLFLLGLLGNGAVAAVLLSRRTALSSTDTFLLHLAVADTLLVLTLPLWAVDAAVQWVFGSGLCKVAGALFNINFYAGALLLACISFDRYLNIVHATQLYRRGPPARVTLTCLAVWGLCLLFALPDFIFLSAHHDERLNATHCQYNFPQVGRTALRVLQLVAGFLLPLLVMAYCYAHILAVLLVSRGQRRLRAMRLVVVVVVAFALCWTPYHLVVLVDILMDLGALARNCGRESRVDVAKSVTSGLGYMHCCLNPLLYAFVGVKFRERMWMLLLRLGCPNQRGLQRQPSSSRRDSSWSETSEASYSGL
# [6] = in vivo; conditions: Balb/c, mouse, po, 10 mg/kg
# [7] = in vivo; conditions: Balb/c, mouse, po, 10 mg/kg; remark: listed apart in the source
# [8] = in vivo; conditions: Balb/c, mouse, po, 10 mg/kg; remark: listed apart in the source
# [9] = Solubility of the compound in FeSSIF; conditions: simulated gi fluid
# [10] = target: T1, C-X-C chemokine receptor type 3; assay: Antagonist activity at human recombinant CXCR3 expressed in CHO-K1 cells measured after 10 mins in presence of CXCL10 by FLIPR analysis
# [11] = target: hERG (KCNH2) (Homo sapiens, UniProt Q12809); assay: Inhibition of hERG expressed in CHO cells at 3 uM at -80 mV holding potential assessed as current block incubated for 3 mins by Qpatch clamp method relative to control
# Chain of hERG (KCNH2) (Q12809 whole entry): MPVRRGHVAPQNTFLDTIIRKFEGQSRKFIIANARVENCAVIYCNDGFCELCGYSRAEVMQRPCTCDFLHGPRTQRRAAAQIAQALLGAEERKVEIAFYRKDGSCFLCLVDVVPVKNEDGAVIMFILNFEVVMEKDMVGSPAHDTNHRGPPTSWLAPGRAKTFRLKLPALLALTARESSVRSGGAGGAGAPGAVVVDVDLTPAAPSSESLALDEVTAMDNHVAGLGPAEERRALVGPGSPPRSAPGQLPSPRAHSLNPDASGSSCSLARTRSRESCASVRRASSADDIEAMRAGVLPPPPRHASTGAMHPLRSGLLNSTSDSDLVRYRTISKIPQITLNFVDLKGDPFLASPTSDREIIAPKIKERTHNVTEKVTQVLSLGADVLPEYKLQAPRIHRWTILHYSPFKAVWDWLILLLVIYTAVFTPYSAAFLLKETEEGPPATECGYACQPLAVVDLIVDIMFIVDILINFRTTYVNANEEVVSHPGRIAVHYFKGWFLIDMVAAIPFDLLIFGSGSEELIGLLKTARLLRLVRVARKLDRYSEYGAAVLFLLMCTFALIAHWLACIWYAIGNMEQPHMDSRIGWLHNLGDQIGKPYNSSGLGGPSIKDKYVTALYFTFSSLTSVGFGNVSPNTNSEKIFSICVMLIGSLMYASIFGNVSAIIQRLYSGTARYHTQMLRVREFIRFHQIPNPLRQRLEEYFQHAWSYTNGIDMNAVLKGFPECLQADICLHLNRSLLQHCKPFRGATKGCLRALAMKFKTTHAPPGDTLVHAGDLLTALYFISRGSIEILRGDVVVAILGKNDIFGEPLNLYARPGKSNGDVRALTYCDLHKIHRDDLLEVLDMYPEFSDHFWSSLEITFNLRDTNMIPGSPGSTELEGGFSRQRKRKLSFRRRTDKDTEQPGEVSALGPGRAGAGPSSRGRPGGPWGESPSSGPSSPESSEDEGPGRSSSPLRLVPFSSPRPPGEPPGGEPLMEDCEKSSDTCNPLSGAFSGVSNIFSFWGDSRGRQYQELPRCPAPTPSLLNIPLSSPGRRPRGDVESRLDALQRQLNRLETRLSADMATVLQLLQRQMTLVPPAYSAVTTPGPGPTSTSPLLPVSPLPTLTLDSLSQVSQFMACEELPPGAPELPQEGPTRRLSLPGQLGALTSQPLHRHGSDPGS
SMILES,IC50 [5] [nM],IC50 [10] [nM],"inhibition at 0.05 h, 3 µM [11] [%]",other results
C[C@@H]1CN(c2sc(C(F)(F)F)nc2-c2nc3cc(OCCO)ccc3[nH]2)CCN1C(=O)Cn1cnc2cccnc21,99.1,2.1,25,"microsomal CLint at 0.25 h, 1 µM [1]: 43 µL/min/mg; fraction unbound [2]: 0.03; logD [3]: 2.4; microsomal CLint at 0.25 h, 1 µM [4]: 31 µL/min/mg; Tmax [6]: 0.25 h; Cmax [7]: 1760 ng/mL; AUC [8]: 519 ng·h/mL; solubility [9]: 549 µg/mL"
Cc1nc(C)n(CC(=O)N2CCN(c3sc(C(F)(F)F)nc3-c3nc4ccc(C5CCNCC5)cc4[nH]3)C[C@H]2C)n1,307,2.2,5,
Cc1nc(C)n(CC(=O)N2CCN(c3sc(C(F)(F)F)nc3-c3nc4cccc(C)c4[nH]3)C[C@H]2C)n1,,,52,
C[C@@H]1CN(c2sc(C(F)(F)F)nc2-c2nc3ccccc3[nH]2)CCN1C(=O)Cn1cc(C2CCN(C)CC2)cn1,1690,15,74,
Cc1nc(C)n(CC(=O)N2CCN(c3sc(C(F)(F)F)nc3-c3nc4cc(N5CCOCC5)cc(F)c4[nH]3)C[C@H]2C)n1,,,6,
Cc1nc(C)n(CC(=O)N2CCN(c3sc(C(F)(F)F)nc3-c3nc4ccc(C(C)(C)O)c(F)c4[nH]3)C[C@H]2C)n1,,,18,
C[C@@H]1CN(c2sc(C(F)(F)F)nc2-c2nc3ccccc3[nH]2)CCN1C(=O)Cc1cccc2cccnc12,502,23,78,
COCCn1c(-c2nc(C(F)(F)F)sc2N2CCN(C(=O)Cn3cccn3)[C@H](C)C2)nc2ccccc21,6890,150,2,
C[C@@H]1CN(c2sc(C(F)(F)F)nc2-c2nc3cc(Cl)ccc3[nH]2)CCN1C(=O)Cn1cnc2cccnc21,38.5,2.8,83,
COC1CCN(CC(=O)N2CCN(c3sc(C(F)(F)F)nc3-c3nc4ccccc4[nH]3)C[C@H]2C)C1 (some centres undefined),,,85,
Cc1nc(C)n(CC(=O)N2CCN(c3sc(C(F)(F)F)nc3-c3nc4ccc(-n5cncn5)cc4[nH]3)C[C@H]2C)n1,1140,5.8,3,
C[C@@H]1CN(c2sc(C(F)(F)F)nc2-c2nc3ccccc3[nH]2)CCN1C(=O)Cn1c(=O)[nH]c2cccnc21,143,2.6,53,
C[C@@H]1CN(c2sc(C(F)(F)F)nc2-c2nc3ccccc3[nH]2)CCN1C(=O)Cn1ccc(C(=O)O)n1,,,-2,
C[C@@H]1CN(c2sc(C(F)(F)F)nc2-c2nc3ccccc3[nH]2)CCN1C(=O)CN1C(=O)OC[C@@H]1c1ccccc1,,,83,
C[C@@H]1CN(c2sc(C(F)(F)F)nc2-c2nc3ccc(N4CCN(C)CC4)cc3[nH]2)CCN1C(=O)Cn1cccn1,122,1.6,0,
Cc1nc(C)n(CC(=O)N2CCN(c3sc(C(F)(F)F)nc3-c3nc4ccc(C5CCN(C)CC5)cc4[nH]3)C[C@H]2C)n1,,,-5,"microsomal CLint at 0.25 h, 1 µM [1]: 27 µL/min/mg; logD [3]: 3.4; Tmax [6]: 3 h; Cmax [7]: 30.5 ng/mL; AUC [8]: 54.6 ng·h/mL; solubility [9]: > 1020 µg/mL"
Cc1ccc(CC(=O)N2CCN(c3sc(C(F)(F)F)nc3-c3nc4ccccc4[nH]3)C[C@H]2C)cn1,805,6.1,73,
Cc1nc(C)n(CC(=O)N2CCN(c3sc(C(F)(F)F)nc3-c3nc4ccc(OC5CNC5)cc4[nH]3)C[C@H]2C)n1,580,3.8,0,
